SMILES strings stand for the structures. In brackets after ≈: the same amount, converted by molar mass. Like-named read-outs stand apart in the source and are kept apart here. *1 amine or outer side, *2 acyl side, *3 side chain or, on linkers, in order; H or OH if unused. Where a SMILES comes first, the peptide text is derived from it. Bridges are numbered along the chain shown (N, C = ends). [ ]: non-standard residue; d: D form. The star is where a group is joined. ξ: configuration not given here. Phe(3,5-F2) = N[C@@H](Cc1cc(F)cc(F)c1)C(=O)O; NH(1-Me-indolin-5-yl) = CN1CCc2cc(N*)ccc21; Morpholine(3S-CO) = O=C(O)[C@@H]1COCCN1; NH(4-Cl-2-F-phenyl) = Fc1cc(Cl)ccc1N*; Pro(4R-Me) = C[C@H]1CN[C@H](C(=O)O)C1; Hyp = O=C(O)[C@@H]1C[C@@H](O)CN1; NMeT = CN[C@H](C(=O)O)[C@@H](C)O; Heptenoyl(2E) = CCCC/C=C/C(=O)*; ξNMeThr = CNC(C(=O)O)[C@@H](C)O; aThr = C[C@H](O)[C@H](N)C(=O)O; Pip = O=C(O)[C@@H]1CCCCN1; X4 = c1cc2c(cc1N*)CCC2; X8 = c1cc2c(cc1N*)CCO2; X6 = Cc1cc(C)cc(N*)c1; CO = O=C([*:1])[*:2]

Assay [1] relates to Enterococcus faecalis, ATCC 33186. The assay is described as follows: Minimal inhibitory concentration assay (microbroth dilution). The format is cell-based. Summed up:
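Broth microdilution per CLSI M7-A7: two-fold serial dilutions of compound in broth (top final concentration 200 μM) were inoculated with ~10^5 cfu/mL bacteria and incubated aerobically overnight at 37 °C. MIC was read visually as the lowest concentration preventing growth.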
Background: In broth dilution the organism is exposed to a series of concentrations in liquid medium.

The target in assay [2] is T1, Sa-ClpP (Staphylococcus aureus, UniProt Q2G036).
T1 construct: made in house; host or cells: E. coli BL21(DE3)
T1 sequence (Q2G036 1-195): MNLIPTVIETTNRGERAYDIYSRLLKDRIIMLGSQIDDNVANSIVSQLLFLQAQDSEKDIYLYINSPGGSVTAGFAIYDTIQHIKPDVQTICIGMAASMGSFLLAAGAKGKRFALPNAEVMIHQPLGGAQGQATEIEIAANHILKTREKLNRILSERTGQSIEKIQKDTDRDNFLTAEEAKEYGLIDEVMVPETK
As to the kind of experiment: ADEP displacement fluorescence polarization assay (FP probe ADEP 2591). The format is binding. Summed up: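 Master mix of 15 μM S. aureus ClpP with 50 nM TAMRA-labelled ADEP 2591 probe in Tris-HCl pH 8.0, 2% DMSO, was pre-equilibrated 1 h, then incubated with compound 120 min at room temperature. Polarization (ex 530, em 579 nm) was normalized to 200 μM ADEP 2378 and DMSO controls; four-parameter fits, triplicate.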
(In general: Fluorescence polarisation rises when a labelled molecule tumbles more slowly, as on binding a larger partner.)

Setting [3] is: Enterococcus faecalis, ATCC33186, read-out: Minimal Inhibitory Concentrations E. faecalis ATCC 33186.
Setting [4] is: Enterococcus faecalis, ATCC33186; read-out: Minimal Inhibitory Concentrations E. faecalis ATCC 33186.

Turning to `CCCC/C=C/C(=O)N[C@@H](Cc1cc(F)cc(F)c1)C(=O)N[C@@H]1C(=O)N2C[C@H](O)C[C@H]2C(=O)N2CCCC[C@H]2C(=O)N[C@@H](C)C(=O)N2C[C@H](C)C[C@H]2C(=O)O[C@H]1C` [Compound 301, (E)-N—((S)-3-(3,5-difluorophenyl)-1-(((2R,6S,8aS,14aS,16R,20S,21S,23aS)-16-hydroxy-2,6,21-trimethyl-5,8,14,19,23-pentaoxooctadecahydro-1H,5H,14H,19H-pyrido[2,1-i]dipyrrolo[2,1-c:2′,1′-l][1]oxa[4,7,10,13]tetraazacyclohexadecin-20-yl)amino)-1-oxopropan-2-yl)hept-2-enamide] ({Heptenoyl(2E)}-[Phe(3,5-F2)][aThr][Hyp][Pip]A[Pro(4R-Me)]; ester 2-C), the MIC in assay [1] (setting [3]) was below 0.0098 µM. In assay [2], this compound displayed an IC50 of 7.07 ± 0.3 µM.

`C[C@@H]1C[C@H]2C(=O)O[C@@H](C)[C@H](NC(=O)[C@H](Cc3cc(F)cc(F)c3)NC(=O)Nc3ccc4c(c3)CCC4)C(=O)N3CCC[C@H]3C(=O)N3CCCC[C@H]3C(=O)N[C@@H](C)C(=O)N2C1` [Compound 302, (S)-3-(3,5-difluorophenyl)-2-(3-(2,3-dihydro-1H-INDEN-5-yl)ureido)-N-((2R,6S,8aS,14aS,20S,21S,23aS)-2,6,21-trimethyl-5,8,14,19,23-pentaoxooctadecahydro-1H,5H,14H,19H-pyrido[2,1-i]dipyrrolo[2,1-c:2′,1′-l][1]oxa[4,7,10,13]tetraazacyclohexadecin-20-yl)propanamide] ({X4-CO}-[Phe(3,5-F2)][aThr]P[Pip]A[Pro(4R-Me)]; ester 2-C): the MIC in assay [1] (setting [3]) was 0.02 µM (≈ 0.0167 µg/mL). In assay [2], the IC50 came out at 9.64 ± 0.6 µM.

`Cc1cc(C)cc(NC(=O)N[C@@H](Cc2cc(F)cc(F)c2)C(=O)N[C@@H]2C(=O)N3CCC[C@H]3C(=O)N3CCCC[C@H]3C(=O)N[C@@H](C)C(=O)N3C[C@H](C)C[C@H]3C(=O)O[C@H]2C)c1` [Compound 304, (S)-3-(3,5-difluorophenyl)-2-(3-(3,5-dimethylphenyl)ureido)-N-((2R,6S,8aS,14aS,20S,21S,23aS)-2,6,21-trimethyl-5,8,14,19,23-pentaoxooctadecahydro-1H,5H,14H,19H-pyrido[2,1-i]dipyrrolo[2,1-c:2′,1′-l][1]oxa[4,7,10,13]tetraazacyclo-hexadecin-20-yl)propanamide] ({X6-CO}-[Phe(3,5-F2)][aThr]P[Pip]A[Pro(4R-Me)]; ester 2-C): the MIC in assay [1] (setting [4]) was 0.029 µM (≈ 0.0238 µg/mL). Further, the half-maximal inhibitory concentration (IC50) in assay [2] amounted to 6.52 ± 0.3 µM.

`C[C@@H]1C[C@H]2C(=O)O[C@@H](C)[C@H](NC(=O)[C@H](Cc3cc(F)cc(F)c3)NC(=O)Nc3ccc4c(c3)CCO4)C(=O)N3CCC[C@H]3C(=O)N3CCCC[C@H]3C(=O)N[C@@H](C)C(=O)N2C1` [Compound 305, (S)-3-(3,5-difluorophenyl)-2-(3-(2,3-dihydrobenzofuran-5-yl)ureido)-N-((2R,6S,8aS,14aS,20S,21S,23aS)-2,6,21-trimethyl-5,8,14,19,23-pentaoxooctadecahydro-1H,5H,14H,19H-pyrido[2,1-i]dipyrrolo[2,1-c:2′,1′-l][1]oxa[4,7,10,13]tetraazacyclo-hexadecin-20-yl)propanamide] ({X8-CO}-[Phe(3,5-F2)][aThr]P[Pip]A[Pro(4R-Me)]; ester 2-C): the MIC in assay [1] (setting [3]) was 0.029 µM (≈ 0.0242 µg/mL). Besides, the half-inhibitory concentration (IC50) in assay [2] is 7.65 ± 0.5 µM.

As for `C[C@@H]1C[C@H]2C(=O)O[C@@H](C)[C@H](NC(=O)[C@H](Cc3cc(F)cc(F)c3)NC(=O)Nc3ccc(Cl)cc3F)C(=O)N3CCC[C@H]3C(=O)N3CCCC[C@H]3C(=O)N[C@@H](C)C(=O)N2C1` [Compound 307, (S)-2-(3-(4-chloro-2-fluorophenyl)ureido)-3-(3,5-difluorophenyl)-N-((2R,6S,8aS,14aS,20S,21S,23aS)-2,6,21-trimethyl-5,8,14,19,23-pentaoxooctadecahydro-1H,5H,14H,19H-pyrido[2,1-i]dipyrrolo[2,1-c:2′,1′-l][1]oxa[4,7,10,13]tetraazacyclo-hexadecin-20-yl)propanamide] ({NH(4-Cl-2-F-phenyl)-CO}-[Phe(3,5-F2)][aThr]P[Pip]A[Pro(4R-Me)]; ester 2-C), in assay [1] (setting [4]), the MIC was below 0.02 µM. Moreover, the IC50 in assay [2] was 7.8 ± 0.4 µM.

On to `CCCC/C=C/C(=O)N[C@@H](Cc1cc(F)cc(F)c1)C(=O)N[C@@H]1C(=O)N2CCC[C@H]2C(=O)N(C)[C@@H]([C@@H](C)O)C(=O)N[C@@H](C)C(=O)N2C[C@H](C)C[C@H]2C(=O)O[C@H]1C` [Compound 308, (E)-N—((S)-3-(3,5-difluorophenyl)-1-(((2R,6S,9S,11aS,17S,18S,20aS)-9-((R)-1-hydroxyethyl)-2,6,10,18-tetramethyl-5,8,11,16,20-pentaoxohexadecahydro-1H,5H,16H-dipyrrolo[2,1-c:2′,1′-l][1]oxa[4,7,10,13]tetraazacyclohexadecin-17-yl)amino)-1-oxopropan-2-yl)hept-2-enamide] ({Heptenoyl(2E)}-[Phe(3,5-F2)][aThr]P[NMeT]A[Pro(4R-Me)]; ester 2-C), for which the MIC in assay [1] (setting [4]) was 0.039 µM (≈ 0.0308 µg/mL). Moreover, the half-inhibitory concentration (IC50) in assay [2] is 4.4 ± 0.3 µM.

On to `CCCC/C=C/C(=O)N[C@@H](Cc1cc(F)cc(F)c1)C(=O)N[C@@H]1C(=O)N2C[C@H](O)C[C@H]2C(=O)N2CCOC[C@H]2C(=O)N[C@@H](C)C(=O)N2C[C@H](C)C[C@H]2C(=O)O[C@H]1C` [Compound 309, (E)-N—((S)-3-(3,5-difluorophenyl)-1-(((6aS,8R,12S,13S,15aS,17R,21S,23aS)-8-hydroxy-13,17,21-trimethyl-6,11,15,20,23-pentaoxooctadecahydro-6H,11H,15H-[1,4]oxazino[3,4-i]dipyrrolo[2,1-c:2′,1′-l][1]oxa[4,7,10,13]tetraazacyclohexadecin-12-yl)amino)-1-oxopropan-2-yl)hept-2-enamide] ({Heptenoyl(2E)}-[Phe(3,5-F2)][aThr][Hyp][Morpholine(3S-CO)]A[Pro(4R-Me)]; ester 2-C), for which, in assay [1] (setting [4]), the MIC came to 0.039 µM (≈ 0.0313 µg/mL). The same compound returned an IC50 in assay [2] of 7.2 ± 0.4 µM.

`C[C@@H]1C[C@H]2C(=O)O[C@@H](C)[C@H](NC(=O)[C@H](Cc3cc(F)cc(F)c3)NC(=O)Nc3ccc4c(c3)CCN4C)C(=O)N3CCC[C@H]3C(=O)N3CCCC[C@H]3C(=O)N[C@@H](C)C(=O)N2C1` [Compound 310, (S)-3-(3,5-difluorophenyl)-2-(3-(1-methylindolin-5-yl)ureido)-N-((2R,6S,8aS,14aS,20S,21S,23aS)-2,6,21-trimethyl-5,8,14,19,23-pentaoxooctadecahydro-1H,5H,14H,19H-pyrido[2,1-i]dipyrrolo[2,1-c:2′,1′-l][1]oxa[4,7,10,13]tetraazacyclo-hexadecin-20-yl)propanamide] ({NH(1-Me-indolin-5-yl)-CO}-[Phe(3,5-F2)][aThr]P[Pip]A[Pro(4R-Me)]; ester 2-C): the MIC in assay [1] (setting [3]) amounted to 0.313 µM (≈ 0.266 µg/mL). Further, the 50% inhibitory concentration (IC50) in assay [2] came out at 6.9 ± 0.3 µM.

Turning to `C[C@@H]1C[C@H]2C(=O)O[C@@H](C)[C@H](NC(=O)[C@H](Cc3cc(F)cc(F)c3)NC(=O)Nc3ccc4c(c3)CCN4C)C(=O)N3CCC[C@H]3C(=O)N(C)C([C@@H](C)O)C(=O)N[C@@H](C)C(=O)N2C1` (stereo partly drawn) [Compound 311, (S)-3-(3,5-difluorophenyl)-N-((2R,6S,9R,11aS,17S,18S,20aS)-9-((R)-1-hydroxyethyl)-2,6,10,18-tetramethyl-5,8,11,16,20-pentaoxohexadecahydro-1H,5H,16H-dipyrrolo[2,1-c:2′,1′-l][1]oxa[4,7,10,13]tetraazacyclohexadecin-17-yl)-2-(3-(1-methylindolin-5-yl)ureido)propanamide] ({NH(1-Me-indolin-5-yl)-CO}-[Phe(3,5-F2)][aThr]P[ξNMeThr]A[Pro(4R-Me)]; ester 2-C), in assay [1] (setting [3]), the MIC worked out at 0.039 µM (≈ 0.0333 µg/mL). The compound further displayed a 50% inhibitory concentration (IC50) in assay [2] of 7.5 ± 0.3 µM.

In the case of `C[C@@H]1C[C@H]2C(=O)O[C@@H](C)[C@H](NC(=O)[C@H](Cc3cc(F)cc(F)c3)NC(=O)Nc3ccc4c(c3)CCN4C)C(=O)N3CCC[C@H]3C(=O)N3CCOC[C@H]3C(=O)N[C@@H](C)C(=O)N2C1` [Compound 312, (S)-3-(3,5-difluorophenyl)-2-(3-(1-methylindolin-5-yl)ureido)-N-((6aS,12S,13S,15aS,17R,21S,23aS)-13,17,21-trimethyl-6,11,15,20,23-pentaoxooctadecahydro-6H,11H,15H-[1,4]oxazino[3,4-i]dipyrrolo[2,1-c:2′,1′-l][1]oxa[4,7,10,13]tetraazacyclo-hexadecin-12-yl)propanamide] ({NH(1-Me-indolin-5-yl)-CO}-[Phe(3,5-F2)][aThr]P[Morpholine(3S-CO)]A[Pro(4R-Me)]; ester 2-C), the MIC in assay [1] (setting [3]) came out at 0.039 µM (≈ 0.0332 µg/mL). This compound also displayed a half-inhibitory concentration (IC50) in assay [2] of 6.3 ± 0.4 µM.

In the case of `C[C@@H]1C[C@H]2C(=O)O[C@@H](C)[C@H](NC(=O)[C@H](Cc3cc(F)cc(F)c3)NC(=O)Nc3ccc(Cl)cc3F)C(=O)N3CCC[C@H]3C(=O)N(C)C([C@@H](C)O)C(=O)N[C@@H](C)C(=O)N2C1` (stereo partly drawn) [Compound 313, (S)-2-(3-(4-chloro-2-fluorophenyl)ureido)-3-(3,5-difluorophenyl)-N-((2R,6S,9R,11aS,17S,18S,20aS)-9-((R)-1-hydroxyethyl)-2,6,10,18-tetramethyl-5,8,11,16,20-pentaoxohexadecahydro-1H,5H,16H-dipyrrolo[2,1-c:2′,1′-l][1]oxa[4,7,10,13]tetraazacyclohexadecin-17-yl)propanamide] ({NH(4-Cl-2-F-phenyl)-CO}-[Phe(3,5-F2)][aThr]P[ξNMeThr]A[Pro(4R-Me)]; ester 2-C), in assay [1] (setting [4]), the MIC was determined as 0.039 µM (≈ 0.0332 µg/mL). Moreover, in assay [2], the half-maximal inhibitory concentration (IC50) worked out at 7.3 ± 0.5 µM.

The term IC50 denotes the concentration needed to halve the response being measured. Read a high IC50 as weaker potency.
